Results reported in PubChem BioAssay (NCI).
Where “and” joins values, the source holds several entries; their conditions need not be identical. Equal values may be shown once.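 Five compound concentrations were applied to cells in 96-well plates for 48 hours; endpoints were derived by simple linear interpolation of the resulting dose-response curve. GI50 marks 50% less growth. TGI denotes the concentration required for complete inhibition of growth.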

Experiments:
Assay in all cases: inhibition of tumour cell growth, NCI panel, 48 h
A549 NSCLC = system: A549 NSCLC
CCRF-CEM leukemia = system: CCRF-CEM leukemia
HCT-15 colon = system: HCT-15 colon
HL-60(TB) leukemia = system: HL-60(TB) leukemia
HOP-92 NSCLC = system: HOP-92 NSCLC
K-562 leukemia = system: K-562 leukemia
OVCAR-4 ovarian = system: OVCAR-4 ovarian
KM12 colon = system: KM12 colon
MCF7 breast = system: MCF7 breast
NCI/ADR-RES ovarian = system: NCI/ADR-RES ovarian

Structure (SMILES) | TGI (A549 NSCLC) [µM] | TGI (CCRF-CEM leukemia) | TGI (HCT-15 colon) [µM] | TGI (HL-60(TB) leukemia) | TGI (HOP-92 NSCLC) [µM] | TGI (K-562 leukemia) [µM] | TGI (OVCAR-4 ovarian) [µM] | GI50 (A549 NSCLC) [nM] | GI50 (CCRF-CEM leukemia) [nM] | GI50 (HCT-15 colon) [µM] | GI50 (HL-60(TB) leukemia) [nM] | GI50 (HOP-92 NSCLC) [nM] | GI50 (K-562 leukemia) [nM] | GI50 (KM12 colon) [µM] | TGI (KM12 colon) [µM] | GI50 (OVCAR-4 ovarian) [µM] | TGI (MCF7 breast) [µM] | TGI (NCI/ADR-RES ovarian) [µM] | GI50 (MCF7 breast) [µM] | GI50 (NCI/ADR-RES ovarian) [nM]
CCN(CC)c1ccc(N=C2C=C(Cl)C(=O)c3ncccc32)c(C)c1 | 48.5 | > 100 µM | 20.8 | 4.72 µM | 7.2 | 11.1 | 18.3 |  |  |  |  |  |  |  |  |  |  |  |  | 
CC(C)C(=O)[O-].CC(C)C(=O)[O-].N.N.N.N.[Co+3].[O-][Cl+3]([O-])([O-])[O-] | > 100 | > 100 µM | > 100 | > 100 µM | > 100 | > 100 | > 100 | > 100000 | > 100000 | > 100 | > 100000 | > 100000 | > 100000 | > 100 | > 100 | > 100 |  |  |  | 
OCC(CCc1c[nH]c2ccccc12)c1c[nH]c2ccccc12 (stereo not drawn) | 47.2 |  | 32.2 | 26.6 µM | 32.7 | 67.6 | 42.9 |  |  |  |  |  |  |  | 32.5 |  | 35 | 44.1 |  | 
CC(=O)[O-].[Zn].c1ccc(/C(=N\Nc2ccccn2)c2ccccn2)cc1 | 5.48 | 0.22 µM and 1.22 µM | 11.6 | 0.0048 µM and 0.0138 µM | 13.3 | 2.35 | 18.1 | 447 |  |  |  | 12.2 |  |  |  |  |  |  |  | 
CCOC(=O)c1ccc(N2C(=O)Cc3ccccc3C2=O)cc1 | > 100 |  | > 100 |  |  | > 100 |  |  |  |  |  |  |  |  | > 100 |  |  |  |  | 
CCOC(=O)C1=C(Nc2ccc(Br)cc2)OC/C1=N\NC(=O)c1ccccc1O | > 100 | 34.3 µM | > 65.3 | 37.2 µM |  | 38.6 | > 100 |  |  |  |  |  |  |  | > 100 |  |  |  |  | 
CC(C)CC12CC3CCC(CNC1=O)C32C (stereo not drawn) | > 100 | > 100 µM |  | > 100 µM | > 100 | > 100 | > 100 |  |  |  |  |  |  |  | > 100 |  |  |  |  | 
CCn1c(=O)c2ccccc2n2c(=O)c3cc4ccccc4cc3nc12 | > 100 | > 100 µM | > 100 | > 100 µM |  | > 100 |  |  |  |  |  |  |  |  | > 100 |  |  |  |  | 
CCCCCCCCCCCCCCCCCCOc1ccccc1CC(=O)NCC[N+](C)(C)C | 51.8 |  | 57.4 |  | 7.16 | > 100 | 30 | 4910 |  | 17 |  | 1920 | 3200 |  |  | 3.11 | 34.9 | 62.6 | 3.77 | 22600
S=c1sc2cscc2s1 | 37.5 | 78 µM | > 100 | 81.5 µM | 70.3 | > 100 | 33 |  |  |  |  |  |  |  | 33.3 |  |  |  |  | 
CS/C(c1ccccc1)=[N+](\[O-])Cc1ccccc1 | > 100 | > 100 µM | 32.9 | > 100 µM | > 100 | > 100 | > 100 |  |  |  |  |  |  |  | > 100 |  |  |  |  | 
CC(=O)/C=C1\CC(=O)Nc2ccccc2N1 | > 100 | > 100 µM | > 100 | > 100 µM | > 100 | > 100 | > 100 |  |  |  |  |  |  |  | > 100 |  |  |  |  | 
O=C(NC1C2CC3CC(C2)CC1C3)/C(Cl)=C1/Sc2ccccc2NC1=O (stereo not drawn) | > 100 | > 100 µM | > 100 | > 100 µM | > 100 | > 100 | > 100 |  |  |  |  |  |  |  | > 100 |  |  |  |  | 
N#Cc1nc2c(S(=O)(=O)c3ccccc3)c(N)n(Cc3ccc(Cl)cc3)c2nc1C#N | 41.3 |  | > 50 | > 50 µM | 46.2 | > 50 | > 50 | 12100 |  | 24.2 | 47300 | 12300 | > 50000 | 17.1 | > 50 | 17.8 | > 50 | 10.3 | 7.38 | 424
OCC(O)C(O)C(O)c1nn(-c2ccccc2)c2nc3cc(Cl)c(Cl)cc3nc12 (stereo not drawn) | > 100 | > 100 µM |  | 91.2 µM |  | 44.1 | > 100 |  |  |  |  |  |  |  |  |  |  |  |  | 
Cc1ccc(C2=C(c3ccc(C)cc3)C(c3ccc(C)cc3)=C(c3ccc(C)cc3)C2=O)cc1 | > 100 | > 100 µM | > 100 |  |  | > 100 |  |  |  |  |  |  |  |  | > 100 |  |  |  |  | 
Cc1ccccc1C(=O)Oc1ccc(OCc2ccccc2)cc1 | > 100 | > 100 µM | > 100 | > 100 µM | > 100 | > 100 | > 100 |  |  |  |  |  |  |  | > 100 |  |  |  |  | 

Structure (SMILES) | TGI (A549 NSCLC) [µM] | TGI (CCRF-CEM leukemia) | TGI (HCT-15 colon) [µM] | TGI (HL-60(TB) leukemia) | TGI (HOP-92 NSCLC) [µM] | TGI (K-562 leukemia) [µM] | TGI (OVCAR-4 ovarian) [µM] | GI50 (A549 NSCLC) [nM] | GI50 (CCRF-CEM leukemia) [nM] | GI50 (HCT-15 colon) [µM] | GI50 (HL-60(TB) leukemia) [nM] | GI50 (HOP-92 NSCLC) [nM] | GI50 (K-562 leukemia) [nM] | GI50 (KM12 colon) [µM] | TGI (KM12 colon) [µM] | GI50 (OVCAR-4 ovarian) [µM] | TGI (MCF7 breast) [µM] | TGI (NCI/ADR-RES ovarian) [µM] | GI50 (MCF7 breast) [µM] | GI50 (NCI/ADR-RES ovarian) [nM]
CC1(C(=O)O)CCOc2ccccc21 (stereo not drawn) | > 100 | > 100 µM | > 100 | > 100 µM | > 100 | > 100 | > 100 |  |  |  |  |  |  |  |  |  |  |  |  | 
COc1ccc(-c2ccc(-c3ccc(C(=N)N)cn3)o2)cc1Cl | 6.56 | 3.78 µM | 3.38 | 5.36 µM | 2.44 | 7.5 | 7.75 | 2590 | 1420 | 1.73 | 2290 | 1120 | 2700 |  |  | 2.58 |  | 8.09 |  | 2560
O=C1C(=O)N(c2nccs2)C(=O)C(=O)C1c1nc2ccccc2s1 | > 100 |  | > 100 |  | > 100 |  | > 100 |  |  |  |  |  |  |  | > 100 |  |  |  |  | 
CCN(CC)CCn1c2ccc(OC)cc2c2sc3cc(OC)ccc3c(=O)c21 | 5.71 |  | 2.66 | 4.22 µM | 2.75 | 2.76 | 4.88 | 1590 |  | 0.861 | 1770 | 1130 | 728 | 2 | 4.32 | 1.84 | 2.45 | 3.6 | 1.16 | 1240
O=C(Nc1ccc(Br)cc1)C(=O)C(C(=O)c1ccccc1F)C1OC(=O)c2ccccc21 (stereo not drawn) | > 100 | > 100 µM | > 100 | 75.6 µM | 65.2 | > 100 | 76 |  |  |  |  |  |  |  | > 100 |  |  |  |  | 
NCc1c(C(N)=O)ncn1Cc1ccccc1 | > 100 | > 100 µM | > 100 | > 100 µM | > 100 | > 100 | > 100 |  |  |  |  |  |  |  |  |  |  |  |  | 
COc1ccc2c(CCNC(=O)/C=C/c3ccccc3)c(C(C)=O)[nH]c2c1[N+](=O)[O-] | > 100 | > 100 µM | > 100 | > 100 µM |  | > 100 | > 100 |  |  |  |  |  |  |  | > 100 |  |  |  |  | 
O=C(N/C(=C\c1ccc(/C=C(\NC(=O)c2ccccc2)c2nc3ccccc3s2)cc1)c1nc2ccccc2s1)c1ccccc1 | 35.2 | 5.28 µM | 16 | 5.71 µM | 25.6 | > 100 | 19.6 |  |  |  |  |  |  |  | 22.6 |  |  |  |  | 
Nc1cc(S(N)(=O)=O)ccc1SSc1ccc(S(N)(=O)=O)cc1N | > 100 |  | > 100 | > 100 µM | > 100 | > 100 | > 100 |  |  |  |  |  |  |  | > 100 |  | > 100 | > 100 |  | 
CC(NC(=O)C(=O)N/N=C1\C[C@@H](c2ccccc2)Nc2ccccc21)c1ccccc1 (stereo partly drawn) | > 100 |  |  | > 100 µM | > 100 |  | > 100 |  |  |  |  |  |  |  | > 100 |  |  |  |  | 
N#Cc1ccc(Oc2cccc(Oc3ccccc3)c2)cc1C#N | > 100 | > 100 µM |  | > 100 µM | > 100 | > 100 | > 100 |  |  |  |  | > 100000 |  | > 100 | > 100 |  |  |  |  | 
C=C1CCCC2[C@](C)(CC3=C(O)C(=O)C=C(OC)C3=O)[C@@H](C)CC[C@]12C (stereo partly drawn) | 11 | 14.6 µM | 49.6 | 9.59 µM |  | > 100 | 78.2 |  |  |  |  |  |  |  | 17.4 |  |  |  |  | 
O=C(Nc1nc2ccc([N+](=O)[O-])cc2s1)C(=O)C(C(=O)c1ccncc1)C1OC(=O)c2ccccc21 (stereo not drawn) | > 100 | > 100 µM | > 100 | > 100 µM | > 100 | > 100 | > 100 |  |  |  |  |  |  |  | > 100 |  |  |  |  | 
CC(=O)OC1CCC2C(=CCC3C2(C)C(=O)CC2(C)C(C4(C)OC(C(C)C)=CC4=O)C(O)CC32C)C1(C)C (stereo not drawn) | > 100 | 56.5 µM | > 100 |  | > 100 | > 100 |  |  |  |  |  |  |  |  | > 10 |  |  |  |  | 
CS(=O)(=O)N(CCC#N)c1ccc(C=O)cc1 | > 100 |  | > 100 | > 100 µM |  | > 100 | > 100 |  |  |  |  |  |  |  | > 100 |  |  |  |  | 
Cn1c(=O)c(C(=O)NC(=O)NCCCCCOC(=O)CCCCCCCCCCC(=O)OCCCCCNC(=O)NC(=O)c2cn(Cc3ccccc3)c(=O)n(C)c2=O)cn(Cc2ccccc2)c1=O | > 100 | > 100 µM | > 100 | > 100 µM | > 100 | > 100 | > 100 |  |  |  |  |  |  |  | > 100 |  |  |  |  | 
CCOC(=O)N1C(c2ccccc2)C=CC(c2ccccc2)N1C(=O)OCC (stereo not drawn) | > 100 | > 100 µM | > 100 |  | > 100 | > 100 | > 100 |  |  |  |  |  |  |  | > 100 |  |  |  |  | 
